Patent publication US7265152B2 (ViroPharma Incorporated, priority 2002, dated 2007)
Where two headings read alike, the source gives them in different places.

Assays:
[1] = tested on: HCV replicon (BB7 sequence) in Huh-7-Clone A cells; experiment: HCV replicon assay: ELISA of NS5A protein in replicon-containing cells (Inhibition of Viral RNA Replication); assay type: cell-based; conditions: Hepatitis C virus, read-out: Replicon
Procedure, shortened: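 EC50 taken from an 8-point serially diluted dose curve, with NS5A level as read-out: fixed cells probed with primary monoclonal and HRP-conjugated secondary, TMB developed 30 min, OD 650 nm. Compound exposure 72 h in Huh-7-Clone A replicon cells (BB7 sequence).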

HCV NS5B = biological target: T1, HCV NS5B (Hepatitis C virus genotype 1b, UniProt Q9WMX2); experiment: Inhibition of viral RNA-dependent RNA polymerase (RdRp), in vitro biochemical assay; design: species or system HCV genotype 1b virus (BB7); conditions: read-out: HCV pol-BB7 IC50
T1 construct: fusion protein, of which the carboxyl terminal 21 amino acids were removed to enhance its solubility; His tag (GSHHHHHH); made in house; host or cells: E. coli
Procedure, shortened: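 IC50 values are the concentrations that halve in vitro RNA synthesis by HCV NS5B polymerase. The enzyme was a C-terminally truncated (Δ21), His-tagged genotype 1b (BB7 consensus) protein purified from E. coli.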

[2] = HCV NS5B RdRp, BB7, reported as range class
[3] = Huh-7-Clone A, NS5A ELISA, 72-hour incubation, ranges of EC50
[4] = purified His-tagged NS5B (BB7), carboxyl terminal 21 amino acids removed
[5] = ranges of EC50 in HCV replicon assay
[6] = HCV replicon assay, ranges of EC50
[7] = HCV replicon assay, ranges of 50% effective concentration (EC50)
[8] = HCV NS5B polymerase, BB7 (genotype 1b), values given as range classes A-D
[9] = HCV NS5B RdRp, BB7, class symbols A-D
[10] = HCV NS5B RdRp, BB7 (genotype 1b), reported as class symbols

CNC(=O)c1c(-c2ccc(F)cc2)oc2cc(-c3nccs3)c(OC(C)C)cc12 [Example 219, 2-(4-Fluoro-phenyl)-5-isopropoxy-6-thiazol-2-yl-benzofuran-3-carboxylic acid methylamide]
EC50 ([1]; HCV replicon, range of EC50): < 10 µM | IC50 (HCV NS5B; [2]): ≤ 0.5 µM

CNC(=O)c1c(-c2ccccc2)oc2cc(OC)ccc12 [Example 67, 6-Methoxy-2-phenyl-benzofuran-3-carboxylic acid methylamide]
EC50 [1, 3]: < 10 µM | IC50 (HCV NS5B; [4]): 0.5 to 5 µM

CNC(=O)c1c(-c2ccc(F)cc2)oc2cc(NS(=O)(=O)C(C)C)c(OC(C)C)cc12 [Example 145, 2-(4-Fluoro-phenyl)-5-isopropoxy-6-(propane-2-sulfonylamino)-benzofuran-3-carboxylic acid methylamide]
EC50 [1, 5]: < 10 µM | IC50 (HCV NS5B; HCV NS5B RdRp, BB7 genotype 1b): 0.5 to 5 µM

CNC(=O)c1c(-c2ccc(F)cc2)oc2cc(C(C)=O)c(OC(C)C)cc12 [Example 196, 6-Acetyl-2-(4-fluoro-phenyl)-5-isopropoxy-benzofuran-3-carboxylic acid methyladime]
EC50 ([1]; HCV replicon, range of EC50): < 1 µM | IC50 (HCV NS5B; [2]): ≤ 0.5 µM

CNC(=O)c1c(-c2ccccc2)oc2cc(OC)c(OC)cc12 [Example 94, 5,6-Dimethoxy-2-phenyl-benzofuran-3-carboxylic acid methylamide]
EC50 [1, 5]: < 1 µM | IC50 (HCV NS5B; HCV NS5B RdRp, BB7 genotype 1b): ≤ 0.5 µM

CNC(=O)c1c(-c2ccc(F)cc2)oc2cc(N(C)S(C)(=O)=O)c(OCc3ccc(F)c(F)c3)cc12 [Example 346, 5-(3,4-Difluoro-benzyloxy)-2-(4-fluoro-phenyl)-6-(methanesulfonyl-methyl-amino)-benzofuran-3-carboxylic acid methylamide]
EC50 [1, 6]: < 1 µM | IC50 (HCV NS5B; HCV NS5B RdRp, BB7, activity class): ≤ 0.5 µM

CNC(=O)c1c(-c2ccc(F)cc2)oc2c(C)cc(OC(C)C)cc12 [Example 80, 2-(4-Fluoro-phenyl)-5-isopropoxy-7-methyl-benzufuran-3-carboxylic acid methylamide]
EC50 [1, 3]: < 30 µM | IC50 (HCV NS5B; [4]): 0.5 to 5 µM

CNC(=O)c1c(-c2ccc(F)cc2)oc2cc(N3CCOCC3)c(OCc3cnc[nH]3)cc12 [Example 225, 2-(4-Fluoro-phenyl)-5-(3H-imidazol-4-ylmethoxy)-6-morpholin-4-yl-benzofuran-3-carboxylic acid methylamide]
EC50 ([1]; HCV replicon, range of EC50): < 10 µM | IC50 (HCV NS5B; [2]): ≤ 0.5 µM

CNC(=O)c1c(-c2ccc(F)cc2)oc2cc(N(Cc3cccc(CBr)n3)S(C)(=O)=O)c(OCc3cccc(CBr)n3)cc12 [Example 391, 5-(6-Bromomethyl-pyridin-2-ylmethoxy)-6-[(6-bromomethyl-pyridin-2-ylmethyl)-methanesulfonyl-amino] 2-(4-fluoro-phenyl)-benzofuran-3-carboxylic acid methylamide]
EC50 [1, 7]: < 10 µM | IC50 (HCV NS5B; [8]): ≤ 0.5 µM

CNC(=O)c1c(-c2ccc(F)cc2)oc2cc(N(C)S(C)(=O)=O)c(O)cc12 [Example 287, 2-(4-Fluoro-phenyl)-5-hydroxy-6-(methanesulfonyl-methyl-amino)-benzofuran-3-carboxylic acid methylamide]
EC50 [1, 6]: < 10 µM | IC50 (HCV NS5B; [9]): ≤ 0.5 µM

CNC(=O)c1c(-c2ccc(F)cc2)oc2cc(NCC3CC3)c(OC(C)C)cc12 [Example 115, 6-(Cyclopropylmethyl-amino)-2-(4-fluoro-phenyl)-5-isopropoxy-benzofuran-3-carboxylic acid methylamide]
EC50 [1, 5]: < 1 µM | IC50 (HCV NS5B; HCV NS5B RdRp, BB7 genotype 1b): ≤ 0.5 µM

CNC(=O)c1c(-c2ccc(F)cc2)oc2cc(-c3cc(COC)no3)c(OC(C)C)cc12 [Example 242, 2-(4-Fluoro-phenyl)-5-isopropoxy-6-(3-methoxymethyl-isoxazol-5-yl)-benzofuran-3-carboxylic acid methylamide]
EC50 ([1]; HCV replicon, range of EC50): 30 µM | IC50 (HCV NS5B; [2]): 0.5 to 5 µM

CNC(=O)c1c(-c2ccc(F)cc2)oc2cc(-c3cc(C)nn3C)c(OC(C)C)cc12 [Example 245, 6-(2,5-Dimethyl-2H-pyrazol-3-y1)-2-(4-fluoro-phenyl)-5-isopropoxybenzofuran 3-carboxylic acid methylamide]
EC50 ([1]; HCV replicon, range of EC50): < 10 µM | IC50 (HCV NS5B; [2]): 0.5 to 5 µM

CNC(=O)c1c(-c2ccc(F)cc2)oc2cc(-c3c(C)noc3C)c(O)cc12 [Example 314, 6-(3,5-Dimethyl-isoxazol-4-yl)-2-(4-fluoro-phenyl)-5-hydroxy-benzofuran-3-carboxylic acid methylamide]
EC50 [1, 6]: < 1 µM | IC50 (HCV NS5B; [9]): ≤ 0.5 µM

C=Cc1cc2oc(-c3ccc(F)cc3)c(C(=O)NC)c2cc1OC(C)C [Example 157, 2-(4-Fluoro-phenyl)-5-isopropoxy-6-vinyl-benzofuran-3-carboxylic acid methylamide]
EC50 [1, 5]: < 10 µM | IC50 (HCV NS5B; HCV NS5B RdRp, BB7 genotype 1b): ≤ 0.5 µM

CNC(=O)c1c(-c2ccc(F)cc2)oc2cc(N3CCOCC3)c(OCC3CC3)cc12 [Example 125, 5-Cyclopropylmethoxy-2-(4-fluoro-phenyl)-6-morpholin-4-yl-benzofuran-3-carboxylic acid methylamide]
EC50 [1, 5]: < 1 µM | IC50 (HCV NS5B; HCV NS5B RdRp, BB7 genotype 1b): ≤ 0.5 µM

CNC(=O)c1c(-c2ccc(F)cc2)oc2cc(N3CCOCC3)c(OCc3nn(C)cc3Cl)cc12 [Example 228, 5-(4-Chloro-1-methyl-1H-pyrazol-3-ylmethoxy)-2-(4-fluoro-phenyl)-6-morpholin-4-yl-benzofuran-3-carboxylic acid methylamide]
EC50 ([1]; HCV replicon, range of EC50): < 1 µM | IC50 (HCV NS5B; [2]): ≤ 0.5 µM

CNC(=O)c1c(-c2ccc(F)cc2)oc2cc(N(Cc3cc(C)on3)S(C)(=O)=O)c(OC(C)C)cc12 [Example 282, 2-(4-Fluoro-phenyl)-5-isopropoxy-6-[methanesulfonyl-(5-methyl-isoxazol-3-ylmethyl)-amino]-benzofuran-3-carboxylic acid methylamide]
EC50 [1, 6]: < 1 µM | IC50 (HCV NS5B; [9]): ≤ 0.5 µM

CNC(=O)c1c(-c2ccncc2)oc2ccc(OC)cc12 [Example 107, 5-Methoxy-2-pyridin-4-yl-benzofuran-3-carboxylic acid methylamide]
EC50 [1, 5]: < 100 µM | IC50 (HCV NS5B; HCV NS5B RdRp, BB7 genotype 1b): 0.5 to 5 µM

CNC(=O)c1c(-c2ccc(F)cc2)oc2cc(-c3noc(C(F)(F)F)n3)c(OC(C)C)cc12 [Example 184, 2-(4-Fluoro-phenyl)-5-isopropoxy-6-(5-trifluoromethyl-[1,2,4]oxadiazol-3-yl)-benzofuran-3-carboxylic acid methylamide]
EC50 ([1]; HCV replicon, range of EC50): < 30 µM | IC50 (HCV NS5B; [2]): 0.5 to 5 µM

CCCOc1cc2c(C(=O)NC)c(-c3ccc(F)cc3)oc2cc1N(COC)S(C)(=O)=O [Example 443, 2-(4-Fluoro-phenyl)-6-(methanesulfonyl-methoxymethyl-amino)-5-propoxy-benzofuran-3-carboxylic acid methylamide]
EC50 [1, 6]: < 1 µM | IC50 (HCV NS5B; [10]): ≤ 0.5 µM

CNC(=O)c1c(-c2ccc(F)cc2)oc2cc(N(C)S(C)(=O)=O)c(OC(F)F)cc12 [Example 298, 5-Difluoromethoxy-2-(4-fluoro-phenyl)-6-(methanesulfonyl-methyl-amino)-benzofuran-3-carboxylic acid methylamide]
EC50 [1, 6]: < 1 µM | IC50 (HCV NS5B; [9]): ≤ 0.5 µM

CNC(=O)c1c(-c2ccc(F)cc2)oc2cc(C3CCOC3)c(OC)cc12 (stereo not shown) [Example 442, 2-(4-Fluoro-phenyl)-5-methoxy-6-(tetrahydro-furan-3-yl)-benzofuran-3-carboxylic acid methylamide]
EC50 [1, 6]: < 1 µM | IC50 (HCV NS5B; [10]): ≤ 0.5 µM

CNC(=O)c1c(-c2ccc(F)cc2)oc2cc(N3CCSCC3)c(OC(C)C)cc12 [Example 186, 2-(4-Fluoro-phenyl)-5-isopropoxy-6-thiomorpholin-4-yl-benzofuran-3-carboxylic acid methylamide]
EC50 ([1]; HCV replicon, range of EC50): < 1 µM | IC50 (HCV NS5B; [2]): ≤ 0.5 µM

CNC(=O)c1c(-c2ccc(F)cc2)oc2cc(N(CCO)S(C)(=O)=O)c(OC)cc12 [Example 42, 2-(4-Fluoro-phenyl)-6-[(2-hydroxy-ethyl)-methanesulfonyl-amino]-5-methoxy-benzofuran-3-carboxylic acid methylamide]
EC50 [1, 3]: < 1 µM | IC50 (HCV NS5B; [4]): ≤ 0.5 µM

CNC(=O)c1c(-c2ccc(F)cc2)oc2cc(N(C)C)c(OC)cc12 [Example 394, 6-Dimethylamino-2-(4-fluoro-phenyl)-5-methoxy-benzofuran-3-carboxylic acid methylamide]
EC50 [1, 7]: < 1 µM | IC50 (HCV NS5B; [8]): ≤ 0.5 µM

CNC(=O)c1c(-c2ccccc2)oc2ccc(COC)cc12 [Example 78, 5-Methoxymethyl-2-phenyl-benzofuran-3-carboxylic acid methylamide]
EC50 [1, 3]: < 30 µM | IC50 (HCV NS5B; [4]): 0.5 to 5 µM

CNC(=O)c1c(-c2ccc(F)cc2)oc2cc(N(CC(O)c3ccc(F)cc3)S(C)(=O)=O)c(OC(C)C)cc12 (stereo not shown) [Example 322, 2-(4-Fluoro-phenyl)-6-{[2-(4-fluoro-phenyl)-2-hydroxy-ethyl]-methanesulfonyl-amino}-5-isopropoxy-benzofuran-3-carboxylic acid methylamide]
EC50 [1, 6]: < 1 µM | IC50 (HCV NS5B; [9]): ≤ 0.5 µM

CNC(=O)c1c(-c2ccc(F)cc2)oc2cc(-c3c(C)noc3C)c(OCCCO)cc12 [Example 51, 6-(3,5-Dimethyl-isoxazol-4-yl)-2-(4-fluoro-phenyl)-5-(3-hydroxy-propoxy)-benzofuran-3-carboxylic acid methylamide]
EC50 [1, 3]: < 1 µM | IC50 (HCV NS5B; [4]): ≤ 0.5 µM
